Results as given in patent US11061016B2, “In vitro model for pathological or physiologic conditions” (HemoShear, LLC, priority 2012, dated 2021).

Assays:
hepatocytes [1] = experiment: Fatty liver model: RT-PCR metabolic gene expression; conditions: high insulin/glucose disease conditions; pioglitazone 1.5 μM
hepatocytes [2] = experiment: Fatty liver model: measurement of total triglycerides; assay type: cell-based, rat; conditions: high insulin/glucose media; pioglitazone 1.5 μM; to levels similar to healthy conditions
Procedure: Triglyceride content was assessed using a commercially available colorimetric assay kit (Cayman Triglyceride Colorimetric Assay Kit, Cat #10010303). At the end of the treatment period, cells were collected from the porous membranes by scraping with a rubber policeman and PBS, after which they were centrifuged (2,000×g for 10 minutes at 4° C.). The cell pellets were resuspended in 100 μl of cold diluted Standard Diluent from the triglyceride assay kit and sonicated 20 times at one second bursts. The cell suspension was then centrifuged at 10,000×g for 10 minutes at 4° C. The supernatant was removed and used for the assay as per the manufacturer's protocol and normalized to protein content from the same samples.

SMILES: CCc1ccc(CCOc2ccc(CC3SC(=O)NC3=O)cc2)nc1 (centres unmarked) [Pioglitazone, pioglitazone]
- expression of metabolic genes such as Cyp3A2 (hepatocytes [1]): restored
- total triglyceride content of hepatocytes (hepatocytes [2]): reduced
